Test results taken from ChEMBL document CHEMBL5614393, “Thioamides in medicinal chemistry and as small molecule therapeutic agents” (Eur J Med Chem, 2024).
≈ marks a conversion by molar mass, not a printed value.

What was measured:
Pseudomonas aeruginosa = assay: Antibacterial activity against Pseudomonas aeruginosa ATCC 9027 assessed as reduction in bacterial cell growth incubated for 16 hrs by CLSI-based Mueller-Hinton broth dilution method; format: functional
[1] = Inhibition of urease (unknown origin)
Staphylococcus aureus = assay: Antibacterial activity against Staphylococcus aureus ATCC 6538 assessed as reduction in bacterial cell growth incubated for 16 hrs by CLSI-based Mueller-Hinton broth dilution method; format: functional
[2] = system: Staphylococcus epidermidis; assay: Antibacterial activity against Staphylococcus epidermidis ATCC 12228 assessed as reduction in bacterial cell growth incubated for 16 hrs by CLSI-based Mueller-Hinton broth dilution method; format: functional
Homo sapiens = organism: Homo sapiens; assay: Inhibition of NOS (unknown origin) at 15.6 uM relative to control
HepG2 [3] = assay: Cytotoxicity against human HepG2 cells assessed as reduction in cell growth by MTT colorimetric assay; format: functional, cell-based
PC-3 = assay: Cytotoxicity against human PC-3 cells assessed as reduction in cell growth by MTT colorimetric assay; format: functional, cell-based
MCF7 [4] = assay: Cytotoxicity against human MCF7 cells assessed as reduction in cell growth by MTT colorimetric assay; format: functional, cell-based
SARS-CoV-2 = assay: Antiviral activity against SARS-CoV-2 infected in African green monkey Vero E6 cells incubated for 48 hrs by plaque reduction assay; format: functional, organism-based; settings: Severe acute respiratory syndrome coronavirus 2, Vero C1008, 48 h
MCF7 [5] = assay: Cytotoxicity against human MCF7 cells assessed as reduction in cell viability incubated for 48 hrs by MTT assay; format: functional, cell-based; settings: MCF7, 48 h
[6] = target: NAD-dependent protein deacetylase sirtuin-1 (Homo sapiens, UniProt Q96EB6); assay: Inhibition of SIRT1 (unknown origin)
[7] = target: NAD-dependent protein deacetylase sirtuin-3, mitochondrial (Homo sapiens, UniProt Q9NTG7); assay: Inhibition of SIRT3 (unknown origin)
[8] = target: T1, NAD-dependent protein deacetylase sirtuin-2 (Homo sapiens, UniProt Q8IXJ6); assay: Inhibition of SIRT2 (unknown origin)
T1 sequence (Q8IXJ6 whole entry): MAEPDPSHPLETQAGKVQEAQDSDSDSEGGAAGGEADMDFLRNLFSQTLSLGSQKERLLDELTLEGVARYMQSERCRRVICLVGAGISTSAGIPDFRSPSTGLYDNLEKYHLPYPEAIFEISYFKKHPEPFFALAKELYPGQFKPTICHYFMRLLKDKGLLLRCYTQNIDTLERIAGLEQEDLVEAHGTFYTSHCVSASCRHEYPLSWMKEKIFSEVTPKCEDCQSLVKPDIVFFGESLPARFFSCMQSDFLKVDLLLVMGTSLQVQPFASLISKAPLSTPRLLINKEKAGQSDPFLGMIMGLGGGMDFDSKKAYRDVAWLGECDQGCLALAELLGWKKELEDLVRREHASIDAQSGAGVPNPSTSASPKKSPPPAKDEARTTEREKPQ

[9] = target: NAD-dependent protein deacylase sirtuin-5, mitochondrial (Homo sapiens, UniProt Q9NXA8); assay: Inhibition of SIRT5 (unknown origin)
MCF7 [10] = assay: Antiproliferative activity against human MCF7 cells; format: functional, cell-based
MDA-MB-231 [11] = assay: Antiproliferative activity against human MDA-MB-231 cells; format: functional, cell-based
HCT-116 [12] = assay: Antiproliferative activity against human HCT-116 cells; format: functional, cell-based
HepG2 [13] = assay: Antiproliferative activity against human HepG2 cells; format: functional, cell-based
[14] = Half life in mouse; format: ADME, organism-based; settings: in vivo
[15] = target: T1, NAD-dependent protein deacetylase sirtuin-2; assay: Inhibition of C-terminal His-tagged SIRT2 (50 to 356 residues) (unknown origin) using Ac-Glu-Thr-Asp-Lys(Myr)-AMC as substrate by fluorescence based analysis
[16] = AUClast in mouse at 40 mg/kg, ip; format: ADME, organism-based; settings: in vivo
MDA-MB-231 [17] = assay: Antiproliferative activity against human MDA-MB-231 cells overexpressing PHGDH assessed as reduction in cell growth; format: functional, cell-based
Carbonic anhydrase 1 = Carbonic anhydrase 1 (Homo sapiens, UniProt P00915); assay: Inhibition of human carbonic anhydrase I
Carbonic anhydrase 2 = Carbonic anhydrase 2 (Homo sapiens, UniProt P00918); assay: Inhibition of human carbonic anhydrase II
HCT-116 [18] = assay: Growth inhibition of human HCT-116 cells by SRB assay; format: functional
MCF7 [19] = assay: Cytotoxicity against human MCF7 cells assessed as reduction in cell growth incubated for 24 hrs by MTT assay; format: functional, cell-based; settings: MCF7, 24 h
HCT-116 [20] = assay: Cytotoxicity against human HCT-116 cells assessed as reduction in cell growth incubated for 24 hrs by MTT assay; format: functional, cell-based; settings: HCT-116, 24 h
SiHa = assay: Antiproliferative activity against human SiHa cells overexpressing PHGDH assessed as reduction in cell growth; format: functional, cell-based
HL-60 = assay: Antiproliferative activity against human HL-60 cells overexpressing PHGDH assessed as reduction in cell growth; format: functional, cell-based
A549 = assay: Cytotoxicity against human A549 cells assessed as reduction in cell viability incubated for 24 hrs by MTT assay; format: functional, cell-based; settings: A549, 24 h
HeLa = assay: Cytotoxicity against human HeLa cells assessed as reduction in cell viability incubated for 24 hrs by MTT assay; format: functional, cell-based
[21] = Antioxidant activity assessed as DPPH radical scavenging activity; format: functional
[22] = target: Epidermal growth factor receptor (Homo sapiens, UniProt P00533); assay: Inhibition of EGFR (unknown origin)
Sequence of Epidermal growth factor receptor (P00533 whole entry): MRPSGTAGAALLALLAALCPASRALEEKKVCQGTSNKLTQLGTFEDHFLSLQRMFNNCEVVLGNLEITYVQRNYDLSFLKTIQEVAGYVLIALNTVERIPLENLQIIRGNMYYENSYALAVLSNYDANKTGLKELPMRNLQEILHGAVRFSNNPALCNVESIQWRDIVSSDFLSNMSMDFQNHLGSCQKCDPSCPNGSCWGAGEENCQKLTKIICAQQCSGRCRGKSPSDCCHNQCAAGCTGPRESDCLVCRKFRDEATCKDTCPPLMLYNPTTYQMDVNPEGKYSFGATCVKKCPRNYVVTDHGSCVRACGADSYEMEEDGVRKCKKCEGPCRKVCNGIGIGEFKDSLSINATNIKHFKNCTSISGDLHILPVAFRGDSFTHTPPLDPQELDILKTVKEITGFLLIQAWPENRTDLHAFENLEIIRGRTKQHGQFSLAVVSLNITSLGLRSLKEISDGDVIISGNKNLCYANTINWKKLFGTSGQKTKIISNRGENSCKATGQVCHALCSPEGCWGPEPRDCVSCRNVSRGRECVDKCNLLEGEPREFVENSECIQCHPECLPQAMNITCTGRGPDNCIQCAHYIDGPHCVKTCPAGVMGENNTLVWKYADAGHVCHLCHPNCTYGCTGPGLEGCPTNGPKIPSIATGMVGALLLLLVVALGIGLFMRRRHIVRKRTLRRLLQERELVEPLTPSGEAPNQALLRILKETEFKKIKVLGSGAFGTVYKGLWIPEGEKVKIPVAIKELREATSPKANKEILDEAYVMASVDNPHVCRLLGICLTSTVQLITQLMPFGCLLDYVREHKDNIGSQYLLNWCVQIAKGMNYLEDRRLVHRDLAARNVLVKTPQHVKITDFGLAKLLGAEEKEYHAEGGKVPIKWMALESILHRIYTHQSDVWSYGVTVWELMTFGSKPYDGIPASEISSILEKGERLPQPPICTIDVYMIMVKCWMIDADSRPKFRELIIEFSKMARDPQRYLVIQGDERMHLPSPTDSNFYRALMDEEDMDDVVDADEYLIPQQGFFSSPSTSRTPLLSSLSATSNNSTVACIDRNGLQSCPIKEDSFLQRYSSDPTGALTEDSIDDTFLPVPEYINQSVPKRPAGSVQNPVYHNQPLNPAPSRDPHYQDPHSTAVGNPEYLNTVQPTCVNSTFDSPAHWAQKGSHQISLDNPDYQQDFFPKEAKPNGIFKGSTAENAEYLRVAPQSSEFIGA

Sequence of Carbonic anhydrase 1 (P00915 whole entry): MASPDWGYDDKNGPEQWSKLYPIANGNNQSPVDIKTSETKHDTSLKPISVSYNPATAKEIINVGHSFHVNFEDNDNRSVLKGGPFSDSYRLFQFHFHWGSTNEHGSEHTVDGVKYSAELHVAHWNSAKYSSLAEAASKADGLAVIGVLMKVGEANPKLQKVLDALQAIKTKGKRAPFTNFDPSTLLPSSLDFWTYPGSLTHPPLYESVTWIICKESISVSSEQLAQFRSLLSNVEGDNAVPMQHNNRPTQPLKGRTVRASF
Sequence of NAD-dependent protein deacylase sirtuin-5, mitochondrial (Q9NXA8 whole entry): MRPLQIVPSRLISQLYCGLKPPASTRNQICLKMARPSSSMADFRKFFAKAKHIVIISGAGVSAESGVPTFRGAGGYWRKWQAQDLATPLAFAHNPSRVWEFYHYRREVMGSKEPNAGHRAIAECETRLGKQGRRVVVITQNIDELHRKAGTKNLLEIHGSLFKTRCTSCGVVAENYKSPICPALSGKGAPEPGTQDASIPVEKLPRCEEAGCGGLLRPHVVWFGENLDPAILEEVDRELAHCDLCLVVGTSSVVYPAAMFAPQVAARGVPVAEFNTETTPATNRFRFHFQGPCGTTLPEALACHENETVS
Sequence of NAD-dependent protein deacetylase sirtuin-3, mitochondrial (Q9NTG7 whole entry): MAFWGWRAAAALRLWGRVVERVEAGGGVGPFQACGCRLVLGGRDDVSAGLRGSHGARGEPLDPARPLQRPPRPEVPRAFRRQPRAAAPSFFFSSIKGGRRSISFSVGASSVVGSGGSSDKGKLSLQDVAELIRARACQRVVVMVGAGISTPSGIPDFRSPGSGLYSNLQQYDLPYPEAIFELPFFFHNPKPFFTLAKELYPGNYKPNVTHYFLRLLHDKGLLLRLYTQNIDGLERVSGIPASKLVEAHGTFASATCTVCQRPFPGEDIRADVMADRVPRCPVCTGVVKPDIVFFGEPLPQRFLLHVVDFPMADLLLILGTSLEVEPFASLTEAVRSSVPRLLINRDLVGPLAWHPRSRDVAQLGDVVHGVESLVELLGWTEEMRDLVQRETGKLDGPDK
Sequence of NAD-dependent protein deacetylase sirtuin-1 (Q96EB6 whole entry): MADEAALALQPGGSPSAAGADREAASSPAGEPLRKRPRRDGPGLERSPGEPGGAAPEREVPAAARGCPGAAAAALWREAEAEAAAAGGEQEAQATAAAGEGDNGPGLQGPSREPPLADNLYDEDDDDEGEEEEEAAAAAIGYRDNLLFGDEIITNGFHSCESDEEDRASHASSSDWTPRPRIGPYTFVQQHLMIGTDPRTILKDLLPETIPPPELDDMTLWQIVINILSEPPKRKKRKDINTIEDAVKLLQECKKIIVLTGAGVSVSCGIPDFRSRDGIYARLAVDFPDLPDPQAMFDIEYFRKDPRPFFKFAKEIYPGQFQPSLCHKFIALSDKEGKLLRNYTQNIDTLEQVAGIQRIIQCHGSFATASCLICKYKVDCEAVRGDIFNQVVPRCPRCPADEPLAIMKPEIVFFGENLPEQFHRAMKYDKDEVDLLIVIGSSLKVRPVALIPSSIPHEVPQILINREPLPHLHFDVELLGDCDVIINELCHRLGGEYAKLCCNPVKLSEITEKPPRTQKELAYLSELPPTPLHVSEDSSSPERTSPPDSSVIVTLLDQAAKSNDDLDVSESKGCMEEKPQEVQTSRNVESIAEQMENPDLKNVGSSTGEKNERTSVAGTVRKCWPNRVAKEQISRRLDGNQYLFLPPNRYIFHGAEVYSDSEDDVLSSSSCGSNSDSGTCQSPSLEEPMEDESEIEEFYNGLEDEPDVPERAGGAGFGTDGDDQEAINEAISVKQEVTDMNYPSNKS

SMILES: O=C(O)c1cn(C2CC2)c2cc(N3CCN(C(=S)c4cccc(F)c4)CC3)c(F)cc2c1=O
- MIC50 (Pseudomonas aeruginosa): < 3 ng/mL
- IC50 [1]: 4.08 µM
- MIC50 (Staphylococcus aureus): < 3 ng/mL
- MIC50 [2]: < 3 ng/mL

SMILES: O=[N+]([O-])c1ccc(N2CCN(C(=S)NCc3nc4ccccc4s3)CC2)cc1
- inhibition (Homo sapiens): 67%

SMILES: COc1ccc2ccc3c(c2c1)C(c1c(F)cccc1F)C(C(N)=S)=C(N)O3 (configuration not stated)
- IC50 (HepG2 [3]): 4.5 µM
- IC50 (PC-3): 1.1 µM
- IC50 (MCF7 [4]): 5.4 µM

SMILES: COc1ccc(NC(=S)N2CCc3ccccc3C2)cc1
- IC50 [1]: 11.2 µM

SMILES: Cc1cccc(C)c1NC(=S)N1CCc2ccccc2C1
- IC50 [1]: 11.2 µM

SMILES: FC(F)(F)c1ccc(NC(=S)N2CCc3ccccc3C2)cc1
- IC50 [1]: 11.2 µM

SMILES: CC(C)(C)[C@H](NC(=O)C(F)(F)F)C(=O)N1C[C@H]2[C@@H]([C@H]1C(=O)N[C@H](C#N)C[C@H]1CCNC1=O)C2(C)C
- EC50 (SARS-CoV-2): 0.94 µM

SMILES: NC(=O)N1N=C(c2ccc(Cl)cc2)CC1/C=C/c1ccccc1 (configuration not stated)
- IC50 (MCF7 [5]): 15.1 µM

SMILES: CCCCCCCCCCCCCC(=O)NCCCCC(NC(=O)OCc1ccccc1)C(=O)Nc1ccccc1 (configuration not stated)
- IC50 [6]: > 200 µM
- IC50 [7]: > 200 µM
- IC50 [8]: > 200 µM
- IC50 [9]: > 200 µM

SMILES: COc1ccc(C2=NN(C(N)=S)C(c3ccc(Cl)cc3)C2)cc1 (configuration not stated)
- IC50 (MCF7 [10]): 9.37 µM
- IC50 (MDA-MB-231 [11]): 8.5 µM
- IC50 (HCT-116 [12]): 5.89 µM
- IC50 (HepG2 [13]): 6.08 µM

SMILES: CCCCCCCCCCCCCC(=S)NCCCC[C@H](NS(C)(=O)=O)C(=O)N[C@H](C)C(=O)NCCCCNC(=N)N
- half-life [14]: > 2 h
- IC50 [15]: 0.09 µM

SMILES: NC(=S)N1N=C(c2ccc(Cl)cc2)CC1/C=C/c1ccccc1 (configuration not stated)
- IC50 (MCF7 [5]): 7.18 µM

SMILES: CCCCCCCCCCCCCC(=S)NCCCCC(NC(=O)OCc1ccccc1)C(=O)Nc1ccccc1 (configuration not stated)
- IC50 [7]: > 200 µM
- IC50 [9]: > 200 µM

SMILES: COc1ccc(C2=NN(C(N)=O)C(/C=C/c3ccccc3)C2)cc1 (configuration not stated)
- IC50 (MCF7 [5]): 37.7 µM

SMILES: Cc1cc(C)nc(NC(=S)N2CCN(Cc3ccc(C(F)(F)F)cc3)CC2)c1
- AUClast [16]: 147 µg·h/mL
- IC50 (MDA-MB-231 [17]): 8 µM

SMILES: COc1cc(-c2cc(-c3ccc(N)cc3)nn2C(N)=S)cc(OC)c1OC
- IC50 (Carbonic anhydrase 1): 0.0122 µM

SMILES: COc1ccc(-c2cc(-c3ccc(N)cc3)nn2C(N)=S)cc1OC
- IC50 (Carbonic anhydrase 2): 0.0205 µM
- IC50 (Carbonic anhydrase 1): 0.00513 µM

SMILES: COc1cc(C2CC(c3ccccc3)=NN2C(N)=S)cc(OC)c1OC (configuration not stated)
- GI50 (HCT-116 [18]): 0.15 µM

SMILES: Cc1cc(C)c2c(n1)nn1c(C)c(C(=S)Nc3ccccc3)nnc21
- IC50 (MCF7 [19]): 11.7 µM
- IC50 (HCT-116 [20]): 12.6 µM

SMILES: O=C(C(=S)N1CCOCC1)c1ccc(Cl)cc1
- IC50 (SiHa): 6.6 µM
- IC50 (HL-60): 15.5 µM
- IC50 (MDA-MB-231 [17]): > 100 µM

SMILES: COc1cccc2[nH]c(C(=O)N[C@@H](CC(C)C)C(=O)N[C@@H](C[C@@H]3CCNC3=O)C(=O)c3nc4ccccc4s3)cc12
- EC50 (SARS-CoV-2): 0.29 µM

SMILES: NC(=O)N1N=C(c2ccccc2)CC1/C=C/c1ccccc1 (configuration not stated)
- IC50 (MCF7 [5]): 19.1 µM

SMILES: O=C(O)c1cn(C2CC2)c2cc(N3CCN(C(=S)c4ccc([N+](=O)[O-])cc4)CC3)c(F)cc2c1=O
- IC50 [1]: 2.05 µM

SMILES: CN(C)c1ccc(C2CC(c3ccc(Cl)cc3)=NN2C(N)=S)cc1 (configuration not stated)
- IC50 (A549): 13.5 µM
- IC50 (HeLa): 17.5 µM

SMILES: COc1ccc(F)c2[nH]c(C(=O)N[C@@H](CC(C)C)C(=S)N[C@@H](C[C@@H]3CCNC3=O)C(=O)c3nc4c(F)cccc4s3)cc12
- EC50 (SARS-CoV-2): 0.34 µM

SMILES: O=C(O)c1cn(C2CC2)c2cc(N3CCN(C(=S)c4cccc([N+](=O)[O-])c4)CC3)c(F)cc2c1=O
- IC50 [1]: 5.87 µM

SMILES: COc1ccc(C2=NN(C(N)=S)C(/C=C/c3ccccc3)C2)cc1 (configuration not stated)
- IC50 (MCF7 [5]): 22.4 µM

SMILES: CN(C)c1ccc(C2CC(c3cccs3)=NN2C(N)=S)cc1 (configuration not stated)
- IC50 [21]: 632 ng/mL (≈ 1910 nM)

SMILES: NC(=S)N1N=C(c2ccccc2)CC1/C=C/c1ccccc1 (configuration not stated)
- IC50 [22]: 0.34 µM
- IC50 (MCF7 [5]): 4.53 µM

SMILES: CCCCCCCCCCCCNC(=S)NCCCC[C@H](NS(C)(=O)=O)C(=O)N[C@H](C)C(=O)NCCCCNC(=N)N
- half-life [14]: < 2 h
- IC50 [15]: 0.1 µM

SMILES: COc1ccc(F)c2[nH]c(C(=O)N[C@@H](CC(C)C)C(=O)N[C@@H](C[C@@H]3CCNC3=O)C(=O)c3nc4c(F)cccc4s3)cc12
- EC50 (SARS-CoV-2): 0.29 µM
